The results in this text go back to ChEMBL document CHEMBL4251565, “Functionalized 2,1-benzothiazine 2,2-dioxides as new inhibitors of Dengue NS5 RNA-dependent RNA polymerase” (Eur J Med Chem, 2018).

Data set [1] deals with O=C(OC1=CS(=O)(=O)Nc2ccc(Oc3ccccc3Br)cc21)c1ccc(F)c(F)c1. Description: Mixed type inhibition of DENV3 NS5 RdRp using increasing concentration of ss-RNA PolyC as template assessed as Km for substrate after 1 hr in presence of GTP substrate after 1 hr by Lineweaver-Burk double reciprocal plot analysis. As to conditions: dengue virus type 3.
Data set [2] has the same test system. In words: Mixed type inhibition of DENV3 NS5 RdRp using increasing concentration of GTP as substrate assessed as Km for substrate after 1 hr in presence of ss-RNA PolyC template by Lineweaver-Burk double reciprocal plot analysis. The settings on record: dengue virus type 3.
Data set [3] shares this test system. In words: Mixed type inhibition of DENV3 NS5 RdRp using increasing concentration of GTP as substrate assessed as enzyme Vmax after 1 hr in presence of ss-RNA PolyC template by Lineweaver-Burk double reciprocal plot analysis. The settings on record: dengue virus type 3.
Data set [4] shares this test system. Description: Mixed type inhibition of DENV3 NS5 RdRp using increasing concentration of ss-RNA PolyC as template assessed as enzyme Vmax after 1 hr in presence of GTP substrate by Lineweaver-Burk double reciprocal plot analysis. As to conditions: dengue virus type 3.
The next data set has as its system West Nile virus. In words: Antiviral activity against WNV clinical strain infected in African green monkey Vero E6 cells assessed as decrease in viral RNA levels up to 20 uM by qRT-PCR method. Type of data set: functional, organism-based. As to conditions: Vero C1008. Background: Quantitative PCR measures a nucleic acid by following its amplification.
For data set [5], the target named is Nonstructural protein 5 (Dengue virus) (UniProt V5TFZ2). Description: Binding affinity to DENV3 NT-647-NHS labeled NS5 RdRp after 1 hr in presence of ss-RNA PolyC as template and GTP as substrate by microscale thermophoresis method. The settings on record: dengue virus type 3. In general terms: Microscale thermophoresis detects binding through changes in fluorescence in a small temperature gradient.

Another data set deals with dengue virus type 3. In words: Antiviral activity against DENV3 clinical strain infected in African green monkey Vero E6 cells assessed as decrease in viral RNA levels up to 20 uM by qRT-PCR method. Type of data set: functional, organism-based. The settings on record: Vero C1008.
Data set [6] concerns the target Nonstructural protein 5 (Dengue virus) (UniProt V5TFZ2). Description: Inhibition of DENV3 NS5 RdRp using ss-RNA PolyC as template and GTP as substrate assessed as decrease in dsRNA levels after 1 hr in presence of tritonX100 by PicoGreen-based fluorescence assay. As to conditions: dengue virus type 3.
Another data set relates to Zika virus. Description: Antiviral activity against Zika virus clinical strain infected in African green monkey Vero E6 cells assessed as decrease in viral RNA levels up to 20 uM by qRT-PCR method. Type of data set: functional, organism-based. The settings on record: Vero C1008.
The next data set has as its system dengue virus type 2. Description: Antiviral activity against DENV2 clinical strain infected in African green monkey Vero E6 cells assessed as decrease in viral RNA levels up to 20 uM by qRT-PCR method. The class given is functional, organism-based. As to conditions: Vero C1008.

Calls of active or inactive are those of the source. The rule behind the calls is not given here.

With “Nonstructural protein 5 (Dengue virus), V5TFZ2”, the Km in data set [1] turned out to be 0.907 µM; in [2], 5.29 µM. In addition, the values for the maximum rate (Vmax) in [3] and in data set [4] were 15.8 nM/min and 23.2 nM/min, respectively.

As for `O=C(OC1=CS(=O)(=O)Nc2ccc(Oc3ccccc3Br)cc21)c1ccc(F)c(F)c1`, the result in the data set with West Nile virus, in the data set on dengue virus type 3, in the data set with Zika virus and with dengue virus type 2 was inactive. In addition, in data set [5], the result was Active. The inhibition entry in data set [6] is “Active”.

The term Km denotes the substrate concentration at which the rate is half of its maximum. By Vmax is commonly meant the rate approached at saturating substrate.
